Entries after “also recorded” stand apart in the source; their conditions may differ. Where two headings read alike, the source gives them in different places.
What was measured:
[1] = tested on: CCM1 KO endothelial cells; assay: Endothelial cell-to-cell contacts in CCM1 KO endothelial cells in culture; assay type: cell-based, mouse
[2] = tested on: CCM3-knockout endothelial cell line; assay: Immunostaining of CCM3-knockout endothelial cell line; assay type: cell-based, mouse; conditions: 48 h
Method: (§1) In some experiments, endothelial cell lines from the lungs of CCM3-flox/flox mice (8-10 weeks old) were immortalized in culture through retroviral expression of polyoma middle T gene^60. […] These cells were then maintained in culture for up to 25 passages without detectable changes in the effects of this CCM3 ablation.
(§2) Drugs were added to confluent cells for 48 h before the indicated assays. The final concentrations used were: […] (all from Sigma-Aldrich). As all of these were dissolved in DMSO, control treatment (vehicle) was 0.1% DMSO final concentration, as for drug treatment.
Cells cultured in vitro were fixed and stained as described previously^46.
(§3) The following antibodies were used: anti-Pecam (hamster; MAB1398Z, Millipore); anti-b-galactosidase (chicken; ab9361, Abcam); anti-VE-cadherin (rat monoclonal; 550548, BD Biosciences); anti-VE-cadherin (goat; sc-6458, Santa Cruz); anti-active-b-catenin (mouse monoclonal clone 8E7) dephosphorylated on Ser37 and Thr41, Millipore); anti-total-b-catenin (mouse monoclonal; Cell Signaling); anti-S100a4 (rabbit; 07-2274, Millipore); anti-Klf4 (goat; AF3158, R&D); anti-CD44 (rat; 553131, BD Biosciences); anti-ID1 (rabbit; sc-488, Santa Cruz); anti-aSMA (mouse monoclonal; F3777, Sigma); anti-GFP (rabbit; A-6455, Invitrogen); anti-podocalyxin (goat; AF1556, R&D); anti-phospho-histone H3 (rabbit; ab51776, Millipore); anti-CCM3 (rabbit; Eurogentec); anti-p-Smad1 (rabbit; 9516, Cell Signaling); anti-endomucin (rabbit; sc-65495, Santa Cruz); anti-α-tubulin (mouse monoclonal; T9026, Sigma).

[3] = tested on: CCM3-knockout endothelial cell line; assay: rtPCR of b-catenin target gene and progenitor/EndMT markers in CCM3-knockout endothelial cell line; assay type: cell-based, mouse; conditions: 48 h; 135 mM sulindac sulfide, 125 mM sulindac sulfone, 200 mM silibinin, 250 mM salinomycin
Method: as §1, §2
(§4) RNA extraction was performed with RNeasy kits (74106; […]). The RNA (1 μg) was reverse transcribed with random hexamers (High Capacity cDNA Archive kits; Applied Biosystems). The cDNA was amplified with TaqMan gene expression assays (Applied Biosystems) using a 7900 HT thermocycler (ABI/Prism). For each sample, the expression levels were determined with the comparative threshold cycle (Ct) method, and normalized to the housekeeping genes encoding 18S and glyceraldehyde-3-phosphate dehydrogenase (GAPDH). For amplification, the following probes (Applied Biosystems) that have been validated to recognize the mouse transcripts in rtPCR were used: Axin2, Nkd1, Lef1, ccnd1, cMyc-Klf4, Ly6a, S100a4, Id1, Cdh2, Acta2, CD44. The probes to identify the CCM3 mRNA transcript were custom designed, as: forward, […] (SEQ ID No. 12); reverse, GCTCTGGCCGCTCAATCA (SEQ ID No. 13); reporter sequence, […] (SEQ ID No. 14).

[4] = tested on: vascular lesions in the brain of CCM3-ECKO mice; assay: Assessment of lesion burden in brains of CCM3-ECKO mice; assay type: in vivo, mouse; conditions: CCM3-ECKO pups dpn 9; 30 mg/kg intragastrically daily; controls 166.8±22 (sulfide study), 153.5±28 (sulfone study)
Excerpt: (§5) The CCM3-flox/flox mice were generated at TaconicArtemis (Koeln, Germany). Two P-lox sequences were inserted that flank exons 4 and 5 of the murine CCM3 gene, to produce a loss-of-function mutation after excision by Ore recombinase. These CCM3-flox/flox mice were bred with Cdh5(PAC)-CreERT2 mice (Wang et al, 2010) for tamoxifen-inducible endothelial-cell-specific expression of Ore-recombinase and CCM3 gene recombination. The CCM3-flox/flox-Cdh5(PAC)-CreERT2 mice were further bred with BAT-gal mice (Maretto et al, 2003) to monitor the activation of b-catenin transcription signaling, and with Rosa 26-Enhanced […] Fluorescent Protein (EYFP) (Rosa26EYFP) mice (Srinivas et al, 2001) to monitor the expression of Ore-recombinase through the expression of EYFP. Tamoxifen (Sigma) was dissolved in corn oil and 10% ethanol (at 10 mg/ml), and then diluted 1:5 in corn oil before single intragastric administration to dpn 1-2 pups (35 mg/kg body weight), as described in^14. The control (wild-type) mice included CCM3-flox/flox-Cdh5(PAC)-CreERT2-BAT-gal mice treated with the vehicle used to dissolve the tamoxifen (corn oil plus 2% ethanol), and CCM3^+/+-Cdh5(PAC)-CreERT2-BAT-gal mice treated with tamoxifen.
(§6) Brains and eyes from mice pups were fixed in 3% paraformaldehyde immediately after dissection, and this fixing was continued overnight at 4° C. The retinas were dissected from the eyes just before staining as the whole mount. Fixed brains were embedded in 4% low-melting-point agarose and sectioned along the sagittal axis ([…]) using a vibratome (1000 Plus, The Vibratome Company, St. Louis, Mo., US).
For the classification and counting of lesions, entire brains from dpn 9 littermate pups were sectioned and immunostained for Pecam as described above and in the Methods. Sections were then examined under wide-field fluorescence microscopy (10× and 20×). Lesions were classified as described in^63 as mulberry (multiple cavernae, group of more than two contiguous cavernae), single caverna (single dilated vessel with maximal diameter accommodating more than 25 red blood cells), or telangiectases, tortuous small vessels with abnormally dilated lumen). The total numbers of lesions were calculated by summing all of the types of lesions.
As the sections were […], a correction was applied to the number of mulberry lesions, which can span two sections. Therefore, the number of mulberry lesions was divided by […]. The lesions were counted and classified independently by two observers who were blinded to the treatments.
The maximal diameter of the mulberry lesions and single cavernae was used for statistical comparison.

[5] = tested on: b-catenin transcription activity in brain endothelial cells of CCM3-ECKO mice; assay: Immunostaining of brain sections of CCM3-ECKO mice (b-gal reporter, progenitor/EndMT markers, VE-cadherin); assay type: in vivo, mouse; conditions: CCM3-ECKO pups, dpn 9
Excerpt: as §5, §6
Brain sections and retinas were stained as floating samples in 12-well and 96-well plates, respectively. They were blocked overnight at 4° C. in 1% fish-skin gelatin with 0.5% Triton X100 and 5% donkey serum in phosphate-buffered saline (PBS) containing 0.01% thimerosal. The samples were incubated overnight at 4° C. with the primary antibodies diluted in 1% fish-skin gelatin with 0.25% Triton X100 in PBS containing 0.01% thimerosal. Following washing with 0.1% Triton X100 in PBS, the secondary antibodies were added for 4 h at room temperature in 1% fish-skin gelatin with 0.25% Triton X100 in PBS containing 0.01% thimerosal. The incubation with DAPI was in PBS for 4 h, which was followed by several washes in PBS, post-fixating with 3% paraformaldehyde for 5 min at room temperature, and further washes in PBS. The brain sections were mounted in Vectashield with DAPI, and the coverslips fixed with nail varnish; the retinas were mounted in Prolong gold with DAPI.
as §3

[6] = tested on: platelets; conditions: cited from earlier work
[7] = tested on: cavernoma lesions in the brain of CCM1-ECKO mice; assay: Cavernoma lesions in the brain of CCM1-ECKO mice; assay type: in vivo, mouse
Excerpt: (§7) CCM1-ECKO and CCM2-ECKO have been obtained from CCM1-flox/flox and CCM2-flox/flox mice as described in details above for CCM3-ECKO mice, see also Maddaluno et al, 2013 and Boulday et al, 2011.

[8] = tested on: cyclooxygenase; conditions: reported; cited from earlier work
[9] = tested on: CCM3-ECKO mice; assay: Bleeding and mortality in drug-treated CCM3-ECKO mice; conditions: mouse, in vivo
Method: Sulindac sulfide (Sigma) and sulindac sulfone (Sigma) were both dissolved in DMSO and further diluted 1:50 in corn oil. They were administered intragastrically, daily (30 mg/kg body weight), starting one day after the induction of recombination. The control mice were treated in parallel with vehicle only (corn oil plus 2% DMSO).

[10] = tested on: CCM1 KO endothelial cells; assay: Expression of EndMT markers in CCM1 KO endothelial cells in culture; assay type: cell-based, mouse
Method: as §7, §4

For `CC1=C(CC(=O)O)c2cc(F)ccc2/C1=C\c1ccc(S(C)(=O)=O)cc1` [sulindac sulfone, (Z)-5-Fluoro-2-methyl-1-[4-(methylsulfonyl)benzylidene]indene-3-acetic acid], the “organization of endothelial cell-to-cell contacts” value [1] was “induces re-organization”, the “nuclear accumulation of active b-catenin / distribution to adherens junctions” value [2] was “inhibited; also recorded: reduced” and the “overexpression of progenitor/EndMT marker proteins (Klf4, S100a4, Id1, CD44)” value [2] was “strongly reduced; also recorded: inhibited”. For the same compound, the “inhibition of transcription of Axin2, Klf4 and S100a4 (rtPCR)” value [3] was “greatest inhibition; also recorded: most effective”, the “mean number (±SD) of vascular lesions per brain” value [4] was 68.6±10 and the “VE-cadherin localization at endothelial cell-cell junctions in brain vessels” value [5] was “restored its localization to cell-cell junctions”. For the same compound, the “expression of b-catenin target genes / progenitor and EndMT markers (Klf4, S100a4, Id1) in brain endothelium” value ([5]; immunostaining) was “reduced this nuclear reactivity; also recorded: inhibited”, the anti-platelet activity [6] was “lacks anti-platelet activity” and the “formation of cavernoma lesions in the brain” value [7] was “inhibits”. For the same compound, the anti-cyclooxygenase activity [8] was “devoid of anti-cyclooxygenase activity”, the “bleeding from vascular lesions or mortality versus vehicle-treated mice” value [9] was “did not observe either increased bleeding from vascular lesions or mortality” and the “expression of EndMT markers” value [10] was “inhibits”. The “expression of EndMT markers” value ([10]; listed as exisulind) was “inhibition”.
